Experimental data taken from patent publication US20250129012A1, “ANTI-INFLAMMATORY AND ANALGESIC COMPOUNDS AND USE THEREOF” (JIANGSU ATOM BIOSCIENCE AND PHARMACEUTICAL CO., LTD., priority 2021, published 2025).

Legend:
Type in all cases: in vivo, SD rats
[1] = system: TNF-α; test: Inflammatory factor experiment B: TNF-α in knee synovial tissue (ELISA); settings: Rattus norvegicus, po, 48 h, read-out: TNF-α percentage decrease %
[2] = system: IL-1β; test: Inflammatory factor experiment B: IL-1β in knee synovial tissue (ELISA); settings: Rattus norvegicus, po, 48 h, read-out: IL-1β percentage decrease %
[3] = system: IL-6; test: Inflammatory factor experiment B: IL-6 in knee synovial tissue (ELISA); settings: Rattus norvegicus, po, 48 h, read-out: IL-6 percentage decrease %

| SMILES | inhibition in vivo at 0.6 mg/kg [1] | inhibition in vivo at 0.6 mg/kg [2] | inhibition in vivo at 0.6 mg/kg [3] |
| --- | --- | --- | --- |
| COc1cc2c(c(OC)c1OC)-c1ccc(-n3cnnn3)c(=O)cc1[C@@H](NC(C)=O)CC2 [Compound 95, (S)—N-{1,2,3-trimethoxy-9-oxo-10-(1H-tetrazol-1-yl)-5,6,7,9-tetrahydrobenzo[a]heptalen-7-yl}acetamide] | 70% | 40.4% | 109% |
| COc1cc2c(c(OC)c1OC)-c1ccc(-n3ccnc3)c(=O)cc1[C@@H](NC(C)=O)CC2 [Compound 97, (S)—N-{10-(1H-imidazol-1-yl)-1,2,3-trimethoxy-9-oxo-5,6,7,9-tetrahydrobenzo[a]heptalen-7-yl}acetamide] | 92% | 20.2% | 97.8% |
| COc1cc2c(c(OC)c1OC)-c1ccc(-n3ccnn3)c(=O)cc1[C@@H](NC(C)=O)CC2 [Compound 99, (S)—N-(1,2,3-trimethoxy-9-oxo-10-(1H-1,2,3-triazol-1-yl)-5,6,7,9-tetrahydrobenzo[a]heptalen-7-yl)acetamide] | 91.7% | 66.4% | 79.6% |
| COc1cc2c(c(OC)c1OC)-c1ccc(-n3nccn3)c(=O)cc1[C@@H](NC(C)=O)CC2 [Compound 100, (S)—N-(1,2,3-trimethoxy-9-oxo-10-(2H-1,2,3-triazol-2-yl)-5,6,7,9-tetrahydrobenzo[a]heptalen-7-yl)acetamide] | 120% | 65.2% | 169% |
| COC(=O)c1ccc2c(cc1=O)[C@@H](N1CCCCC1=O)CCc1cc(OC)c(OC)c(OC)c1-2 [Compound 108, methyl (S)-1,2,3-trimethoxy-9-oxo-7-(2-oxopiperidin-1-yl)-5,6,7,9-tetrahydrobenzo[a]heptalen-10-carboxylate] | 104% | 92.7% | 207% |
| CCNS(=O)(=O)N[C@H]1CCc2cc(OC)c(OC)c(OC)c2-c2ccc(C(=O)OC)c(=O)cc21 [Compound 112] | 97.8% | 92% | 165% |
